Experimental findings from publication PMC10936602, “BaiJ and BaiB are key enzymes in the chenodeoxycholic acid 7α-dehydroxylation pathway in the gut microbe Clostridium scindens ATCC 35704” (Gut Microbes, 2024) are described below.

The target of test [1] is T1, BaiB ([Clostridium] scindens, UniProt A0A494WIV0).
T1 construct: recombinant in E. coli BL21-CodonPlus(DE3)-RIPL, pET28b+ or modified pET28b+, His and/or Strep tag
T1 sequence (A0A494WIV0 1-507): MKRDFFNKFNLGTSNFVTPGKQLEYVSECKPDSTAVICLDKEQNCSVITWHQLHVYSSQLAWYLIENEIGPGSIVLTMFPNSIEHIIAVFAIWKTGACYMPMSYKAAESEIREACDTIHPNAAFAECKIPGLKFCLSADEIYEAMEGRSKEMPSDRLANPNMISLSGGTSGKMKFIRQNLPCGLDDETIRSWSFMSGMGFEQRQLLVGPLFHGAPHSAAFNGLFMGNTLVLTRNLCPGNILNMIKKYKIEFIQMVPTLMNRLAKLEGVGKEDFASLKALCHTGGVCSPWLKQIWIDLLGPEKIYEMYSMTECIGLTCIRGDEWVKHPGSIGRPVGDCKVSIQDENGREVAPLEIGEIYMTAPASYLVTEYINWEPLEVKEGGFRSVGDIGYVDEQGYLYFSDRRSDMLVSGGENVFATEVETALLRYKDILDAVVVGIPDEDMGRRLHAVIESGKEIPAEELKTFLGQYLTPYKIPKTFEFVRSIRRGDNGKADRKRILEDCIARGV
Put plainly: LC/HRMS substrate depletion and detection of CoA conjugate. The format is biochemical. As to conditions: CoA ligation; CoA and ATP; HEPES pH 7.5, anoxic, 18 h.

The target in test [2] is T2, BaiJ ([Clostridium] scindens, UniProt B0NCC6).
T2 construct: gene urdA; recombinant in E. coli BL21-CodonPlus(DE3)-RIPL, pET28b+ or modified pET28b+, His and/or Strep tag, FAD and FMN added before lysis
T2 sequence (B0NCC6 1-563): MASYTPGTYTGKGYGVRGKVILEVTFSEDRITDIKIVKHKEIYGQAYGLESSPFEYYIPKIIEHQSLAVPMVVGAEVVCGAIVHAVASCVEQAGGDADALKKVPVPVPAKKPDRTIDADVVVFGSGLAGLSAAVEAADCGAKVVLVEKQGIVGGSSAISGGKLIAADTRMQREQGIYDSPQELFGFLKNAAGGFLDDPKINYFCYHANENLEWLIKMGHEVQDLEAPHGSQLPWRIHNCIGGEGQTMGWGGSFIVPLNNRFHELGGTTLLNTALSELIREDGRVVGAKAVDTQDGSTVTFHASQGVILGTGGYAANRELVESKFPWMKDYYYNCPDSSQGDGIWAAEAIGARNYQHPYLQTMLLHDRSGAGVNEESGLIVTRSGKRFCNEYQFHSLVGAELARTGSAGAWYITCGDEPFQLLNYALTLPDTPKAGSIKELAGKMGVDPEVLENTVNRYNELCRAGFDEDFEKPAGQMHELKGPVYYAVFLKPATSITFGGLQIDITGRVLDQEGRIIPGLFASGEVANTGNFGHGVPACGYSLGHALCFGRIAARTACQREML
Put plainly: LC/HRMS product quantification, single enzyme. The settings on record: reduction; NAD, NADP, NADH, NADPH, FMN, FAD, CoA, ATP, ADP 500 μM each; HEPES pH 7.5, 37 °C, anoxic. The format is biochemical.

Structures are written as SMILES.

In the case of `C[C@H](CCC(=O)O)[C@H]1CC[C@H]2[C@@H]3[C@H](O)CC4=CC(=O)CC[C@]4(C)[C@H]3CC[C@]12C` [3-oxo-Δ^4-CDCA], the “LC/HRMS substrate depletion and detection of CoA conjugate” value in test [1] is recorded as “the concentration of 3-oxo-Δ^4-CDCA decreased significantly in the reaction with BaiB”.

On to `C[C@H](CCC(=O)O)[C@H]1CC[C@H]2[C@@H]3CCC4=CC(=O)CC[C@]4(C)[C@H]3CC[C@]12C` [3-oxo-Δ^4-LCA], for which the “LC/HRMS product quantification, single enzyme” value in test [2] is “BaiJ reduces 3-oxo-Δ^4-LCA and forms 3-oxo-allo-LCA as the only reduced product”.
